Reference: PubChem BioAssay (NCI)
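Each compound was tested at five concentrations against cells in 96-well plates for 48 hours. GI50 = concentration required for 50% inhibition of growth. At the TGI there is no net growth.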

Experiments:
Experiment in all cases: growth of human tumour cells (NCI), 48 h
M14 melanoma = system: M14 melanoma
HL-60(TB) leukemia = system: HL-60(TB) leukemia
UO-31 renal = system: UO-31 renal
MOLT-4 leukemia = system: MOLT-4 leukemia
A549 NSCLC = system: A549 NSCLC
SN12C renal = system: SN12C renal
SK-OV-3 ovarian = system: SK-OV-3 ovarian
SF-539 CNS = system: SF-539 CNS
MALME-3M melanoma = system: MALME-3M melanoma
SK-MEL-2 melanoma = system: SK-MEL-2 melanoma

Row | Structure (SMILES) | TGI (M14 melanoma) [µM] | TGI (HL-60(TB) leukemia) [µM] | TGI (UO-31 renal) [µM] | TGI (MOLT-4 leukemia) [µM] | TGI (A549 NSCLC) [µM] | TGI (SN12C renal) [µM] | TGI (SK-OV-3 ovarian) [µM] | TGI (SF-539 CNS) [µM] | TGI (MALME-3M melanoma) [µM] | TGI (SK-MEL-2 melanoma) [µM] | GI50 (M14 melanoma) [µM] | GI50 (HL-60(TB) leukemia) [µM] | GI50 (MOLT-4 leukemia) [µM] | GI50 (SK-MEL-2 melanoma) [µM] | GI50 (A549 NSCLC) [µM] | GI50 (SN12C renal) [µM] | GI50 (SK-OV-3 ovarian) [µM] | GI50 (MALME-3M melanoma) [µM] | GI50 (UO-31 renal) [µM] | GI50 (SF-539 CNS) [µM]
1 | CC1CCC(O)C(C(O)CC2CC(=O)N(C)C(=O)C2)C1 (centres undefined) | > 100 | > 100 | > 100 | > 100 | > 100 | > 100 | > 100 | > 100 | > 100 | – | – | – | – | – | – | – | – | – | – | –
2 | O=C1c2ccccc2-c2cc3ccccc3c(=O)n21 | > 100 | – | > 100 | – | > 100 | > 100 | – | > 100 | – | > 100 | – | – | – | – | – | – | – | – | – | –
3 | c1ccc(SCCCC(Sc2ccccc2)Sc2ccccc2)cc1 | > 100 | > 100 | > 100 | > 100 | > 100 | > 100 | > 100 | > 100 | – | > 100 | – | – | – | – | – | – | – | – | – | –
4 | CC(=O)[CH-]C(=O)c1ccccc1.CC(=O)[CH-]C(=O)c1ccccc1.[O]=[U+2]=[O] | > 100 | 80.3 | – | > 100 | > 100 | > 100 | > 100 | – | 54.6 | > 100 | 35.8 | 29.6 | 32.3 | 37.4 | 31 | 56 | 68.5 | 21.8 | – | –
5 | CC(C)OP(=O)(CP(=O)(OC(C)C)OC(C)C)OC(C)C.[CH3][Sn]([Br])([Br])[Br] | – | > 100 | > 100 | > 100 | > 100 | > 100 | > 100 | > 100 | > 100 | > 100 | – | > 100 | > 100 | > 100 | > 100 | > 100 | > 100 | > 100 | > 100 | > 100
6 | c1ccc2c(c1)CCCc1cc3ccccc3nc1-2 | > 100 | – | > 100 | > 100 | > 100 | > 100 | > 100 | > 100 | > 100 | > 100 | – | – | – | – | – | – | – | – | – | –
7 | COc1c(O)c(OC)c(C(=O)/C=C/c2ccccc2)c(O)c1OC | > 100 | > 100 | – | > 100 | – | 32.6 | > 100 | 86.7 | > 100 | 61.2 | – | – | – | – | – | – | – | – | – | –
8 | O=C(/C=C/N1CCN(c2cccc(C(F)(F)F)c2)CC1)c1ccc(Cl)cc1Cl | 36.1 | – | > 100 | 70.2 | > 100 | 40.6 | 98.2 | 51.3 | 36.2 | > 100 | 17.2 | – | 28.8 | 37.5 | 39.8 | 21.3 | 36.2 | 17.4 | 31.3 | 24.8
9 | C/C(=N\N(C)C)C(CN(C)C)C(c1ccccc1)c1c(O)c2ccccc2oc1=O (centres undefined) | > 100 | > 100 | – | > 100 | > 100 | > 100 | > 100 | – | > 100 | > 100 | – | – | – | – | – | – | – | – | – | –
10 | CC1OC(=O)N(CCCC=C2SCCCS2)C1=O (centres undefined) | > 100 | – | > 100 | > 100 | > 100 | > 100 | > 100 | > 100 | > 100 | > 100 | – | – | – | – | – | – | – | – | – | –
11 | COc1ccc2c(c1O)[C@@]13C=C(O)C(=O)C=C1[C@@H](C2)N(C)CC3 | > 100 | > 100 | > 100 | > 100 | > 100 | > 100 | > 100 | – | > 100 | > 100 | – | – | – | – | – | – | – | – | – | –
12 | COC(=O)C12CC(C3CC31)C1CC12 (centres undefined) | > 100 | > 100 | > 100 | > 100 | > 100 | > 100 | > 100 | – | > 100 | – | – | – | – | – | – | – | – | – | – | –
13 | CCC1OCCN1C(C)C (centres undefined) | – | > 100 | > 100 | > 100 | > 100 | > 100 | > 100 | > 100 | > 100 | > 100 | – | – | – | – | – | – | – | – | – | –
14 | CC(C)OP(=O)(OC(C)C)C(N(C)C)P(=O)(OC(C)C)OC(C)C.[Cl][Sn]([Cl])([Cl])[c]1ccccc1 | – | 4.84 | > 100 | 7.39 | 5.28 | > 100 | 17.3 | 15.1 | 8.2 | 5.3 | – | 1.63 | 1.97 | 2.15 | 2.21 | 4.13 | 3.67 | 2.82 | 4.12 | 3.46
15 | COc1cc2ccn3c4cc(OC)c(OC)cc4cc3c2cc1OC | > 100 | > 100 | > 100 | > 100 | > 100 | > 100 | > 100 | – | > 100 | > 100 | – | – | – | – | – | – | – | – | – | –
16 | COc1ccc(C[C@H]2C[C@@H](O)[C@@H](C)C/C=C/Cc3cccc(O)c3C(=O)O2)cn1 | 36.6 | 38.4 | 66.1 | > 100 | > 100 | 43.9 | > 100 | 37.8 | – | 34.5 | 18.7 | 15.3 | 35.4 | 14.7 | 28.6 | 19.4 | 45.6 | – | 19.9 | 17.9
17 | O=C1OCC(C(=O)c2cccc(O)c2)C1=O (centres undefined) | > 100 | – | > 100 | – | > 100 | > 100 | > 100 | > 100 | > 100 | – | – | – | – | – | – | – | – | – | – | –
18 | CC1=C(C#N)C(N)=C2C(C)=C(C#N)C(N)=C12 | > 100 | > 100 | > 100 | > 100 | > 100 | > 100 | > 100 | > 100 | > 100 | – | – | – | – | – | – | – | – | – | – | –
19 | CC(C)c1ccc(/C=C(\NC(=O)c2ccccc2)c2nc3ccccc3[nH]2)cc1 | > 100 | – | > 100 | 69.9 | 82.5 | > 100 | > 100 | > 100 | > 100 | 89.3 | – | – | – | – | – | – | – | – | – | –
20 | COC(=O)/C(C#N)=C1\N=NNN1CCCN1CCOCC1 | > 100 | – | > 100 | > 100 | > 100 | > 100 | > 100 | > 100 | > 100 | – | – | – | – | – | – | – | – | – | – | –
